# Assay results from ChEMBL document CHEMBL1201862, “PubChem BioAssay data set” (2004).
# Activity calls are given as the source filed them.
# Experiments:
# [1] = target: T1, Carboxy-terminal domain RNA polymerase II polypeptide A small phosphatase 1 (Homo sapiens, UniProt Q9GZU7); test: inhibitors of CTDSP1, concentration-response testing, biochemical assay, absorbance-based, actives from ultra-high-throughput screening (AID 540297); type: functional
# T1 sequence (Q9GZU7 whole entry): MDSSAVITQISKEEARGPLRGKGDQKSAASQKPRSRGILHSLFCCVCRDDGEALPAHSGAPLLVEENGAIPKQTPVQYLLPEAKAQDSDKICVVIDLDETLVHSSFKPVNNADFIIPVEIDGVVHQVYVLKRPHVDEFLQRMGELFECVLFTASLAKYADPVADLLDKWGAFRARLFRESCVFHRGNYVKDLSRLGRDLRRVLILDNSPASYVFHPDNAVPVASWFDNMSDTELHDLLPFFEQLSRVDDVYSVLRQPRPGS
# [2] = Luminescence Cell-Based Dose Retest to Confirm Inhibitors of Cancer Stem Cells. [Related pubchem assays (depositor defined):AID2717, AID2721]; type: functional; conditions: Homo sapiens
# Cytochrome P450 1A2 = target: T2, Cytochrome P450 1A2 (Homo sapiens, UniProt P05177);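 further: PubChem cytochrome P450 panel assay, CYP1A2 panel member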
# T2 sequence (P05177 whole entry): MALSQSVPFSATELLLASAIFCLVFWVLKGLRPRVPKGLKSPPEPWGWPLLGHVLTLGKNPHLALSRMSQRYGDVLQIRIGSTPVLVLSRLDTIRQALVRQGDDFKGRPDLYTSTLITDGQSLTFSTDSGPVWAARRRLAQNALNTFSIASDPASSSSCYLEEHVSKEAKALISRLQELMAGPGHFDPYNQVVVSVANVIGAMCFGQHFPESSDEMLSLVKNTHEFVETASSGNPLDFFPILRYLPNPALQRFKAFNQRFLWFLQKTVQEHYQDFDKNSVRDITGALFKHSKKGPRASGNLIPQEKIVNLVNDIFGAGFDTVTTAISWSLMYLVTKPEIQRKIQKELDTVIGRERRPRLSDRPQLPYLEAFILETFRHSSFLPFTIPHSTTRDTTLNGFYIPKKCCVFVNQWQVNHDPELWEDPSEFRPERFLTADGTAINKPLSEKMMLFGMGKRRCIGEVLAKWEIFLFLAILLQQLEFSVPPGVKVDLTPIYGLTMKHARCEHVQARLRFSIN
# Cytochrome P450 3A4 = Cytochrome P450 3A4 (Homo sapiens, UniProt P08684);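 further: CYP3A4 tested as one member of a cytochrome P450 panel screen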
# Chain of Cytochrome P450 3A4 (P08684 whole entry): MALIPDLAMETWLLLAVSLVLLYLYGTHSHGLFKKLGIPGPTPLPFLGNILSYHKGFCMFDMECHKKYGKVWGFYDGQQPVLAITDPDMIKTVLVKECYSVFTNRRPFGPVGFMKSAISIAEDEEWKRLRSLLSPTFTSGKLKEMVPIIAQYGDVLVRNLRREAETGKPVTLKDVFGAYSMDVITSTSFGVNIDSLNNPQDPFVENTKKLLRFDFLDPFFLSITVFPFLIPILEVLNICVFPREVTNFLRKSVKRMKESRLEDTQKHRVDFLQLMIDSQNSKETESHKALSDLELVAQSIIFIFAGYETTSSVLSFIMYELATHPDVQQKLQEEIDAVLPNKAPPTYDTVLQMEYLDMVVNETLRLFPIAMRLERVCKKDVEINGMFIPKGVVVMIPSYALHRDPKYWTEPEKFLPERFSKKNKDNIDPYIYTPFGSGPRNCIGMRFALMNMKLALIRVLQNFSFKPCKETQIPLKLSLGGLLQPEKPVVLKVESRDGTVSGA
# Cytochrome P450 2C9 = Cytochrome P450 2C9 (Homo sapiens, UniProt P11712)
# Chain of Cytochrome P450 2C9 (P11712 whole entry): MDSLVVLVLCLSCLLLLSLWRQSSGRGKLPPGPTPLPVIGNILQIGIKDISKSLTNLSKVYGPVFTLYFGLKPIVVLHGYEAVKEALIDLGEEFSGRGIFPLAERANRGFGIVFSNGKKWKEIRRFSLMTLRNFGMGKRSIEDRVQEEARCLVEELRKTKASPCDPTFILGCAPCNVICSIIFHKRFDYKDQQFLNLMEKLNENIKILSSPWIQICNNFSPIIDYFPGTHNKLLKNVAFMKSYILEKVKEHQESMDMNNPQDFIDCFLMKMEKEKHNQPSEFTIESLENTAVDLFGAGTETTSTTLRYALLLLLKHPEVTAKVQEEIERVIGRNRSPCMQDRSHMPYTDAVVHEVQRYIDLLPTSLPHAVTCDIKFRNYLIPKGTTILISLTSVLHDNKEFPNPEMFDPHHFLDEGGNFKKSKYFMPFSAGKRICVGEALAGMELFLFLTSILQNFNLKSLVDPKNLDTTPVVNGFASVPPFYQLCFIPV
# [3] = Luminescence Cell-Based Dose Response HTS to Identify Activators of Luciferase Translation or Activity in H4 […] Cells. [Related pubchem assays: 1829 (Project Summary), 1814 (Primary HTS)]; type: functional
# H4 = test: Luminescence Cell-Based Dose Response HTS to Identify Activators of 5'UTR Stem-Loop Driven Prion Protein mRNA Translation in H4 Neuroglioblastoma Cells. [Related pubchem assays: 1829 (Project Summary), 1814 (Primary HTS)]; type: functional; conditions: Homo sapiens
# [4] = Luminescence Cell-Based Dose Confirmation HTS to Identify Activators of 5'UTR Stem-Loop Driven Alpha-Synuclein mRNA Translation in H4 Neuroglioblastoma Cells. [Related pubchem assays: 1829 (Project Summary), 1814 (Primary HTS)]; type: functional
# [5] = HepG2 cell cytotoxicity, dose response, cytotoxicity control for Shn3 inhibitor project, CellTiter-Glo, cherry-picked (AID 624134); type: functional, cell-based
# [6] = Shn3 3'UTR reporter inhibitors, dose response, cell-based, Clone20 osteoblasts, firefly luciferase, cherry-picked (AID 624132); type: functional;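 further: firefly luciferase luminescence from reporter carrying the Shn3 3'UTR in osteoblasts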
# [7] = target: T3, Rac GTPase-activating protein 1 (Homo sapiens, UniProt Q9H0H5); test: MgcRacGAP GTPase-activating activity inhibitors, confirmation, biochemical, ADP Hunter fluorescence, primary and confirmatory (AID 624330); type: functional
# T3 sequence (Q9H0H5 whole entry): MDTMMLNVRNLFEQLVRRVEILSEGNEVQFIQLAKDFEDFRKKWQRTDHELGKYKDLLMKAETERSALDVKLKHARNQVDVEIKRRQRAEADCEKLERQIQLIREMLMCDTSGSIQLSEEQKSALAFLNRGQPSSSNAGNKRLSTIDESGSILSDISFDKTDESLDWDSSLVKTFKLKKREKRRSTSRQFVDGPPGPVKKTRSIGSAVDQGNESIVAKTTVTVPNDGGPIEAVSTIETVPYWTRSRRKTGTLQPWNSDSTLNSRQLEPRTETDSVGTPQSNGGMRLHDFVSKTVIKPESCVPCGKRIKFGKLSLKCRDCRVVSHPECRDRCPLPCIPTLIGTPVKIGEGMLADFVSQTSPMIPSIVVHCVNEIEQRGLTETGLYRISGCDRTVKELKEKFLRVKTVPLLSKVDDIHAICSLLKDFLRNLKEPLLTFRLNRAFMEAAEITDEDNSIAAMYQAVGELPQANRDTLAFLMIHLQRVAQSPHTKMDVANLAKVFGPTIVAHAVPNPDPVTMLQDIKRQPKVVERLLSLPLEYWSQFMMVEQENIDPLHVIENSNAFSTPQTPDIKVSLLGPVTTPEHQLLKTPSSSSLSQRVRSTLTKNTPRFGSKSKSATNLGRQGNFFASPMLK
# Cytochrome P450 2C19 = Cytochrome P450 2C19 (Homo sapiens, UniProt P33261); test: Cytochrome panel assay with activity outcomes. Panel member name: p450-cyp2c19 Compounds with AC50 equal or less than 10 uM are considered active; type: functional
# Chain of Cytochrome P450 2C19 (P33261 whole entry): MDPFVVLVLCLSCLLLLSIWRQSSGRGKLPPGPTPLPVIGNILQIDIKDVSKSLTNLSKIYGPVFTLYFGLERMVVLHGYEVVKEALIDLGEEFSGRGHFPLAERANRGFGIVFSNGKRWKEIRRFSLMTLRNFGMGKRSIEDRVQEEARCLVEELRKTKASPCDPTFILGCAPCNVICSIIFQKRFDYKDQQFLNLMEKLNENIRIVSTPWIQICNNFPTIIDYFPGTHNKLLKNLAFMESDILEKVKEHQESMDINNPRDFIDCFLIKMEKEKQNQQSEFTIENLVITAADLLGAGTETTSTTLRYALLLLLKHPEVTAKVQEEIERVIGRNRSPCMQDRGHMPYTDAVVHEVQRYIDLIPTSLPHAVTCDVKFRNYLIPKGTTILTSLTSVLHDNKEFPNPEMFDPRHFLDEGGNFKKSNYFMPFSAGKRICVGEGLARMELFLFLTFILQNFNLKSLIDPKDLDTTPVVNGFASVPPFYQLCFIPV
# Cytochrome P450 2D6 = Cytochrome P450 2D6 (Homo sapiens, UniProt P10635);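 further: CYP2D6 member of a cytochrome P450 panel assay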
# Chain of Cytochrome P450 2D6 (P10635 whole entry): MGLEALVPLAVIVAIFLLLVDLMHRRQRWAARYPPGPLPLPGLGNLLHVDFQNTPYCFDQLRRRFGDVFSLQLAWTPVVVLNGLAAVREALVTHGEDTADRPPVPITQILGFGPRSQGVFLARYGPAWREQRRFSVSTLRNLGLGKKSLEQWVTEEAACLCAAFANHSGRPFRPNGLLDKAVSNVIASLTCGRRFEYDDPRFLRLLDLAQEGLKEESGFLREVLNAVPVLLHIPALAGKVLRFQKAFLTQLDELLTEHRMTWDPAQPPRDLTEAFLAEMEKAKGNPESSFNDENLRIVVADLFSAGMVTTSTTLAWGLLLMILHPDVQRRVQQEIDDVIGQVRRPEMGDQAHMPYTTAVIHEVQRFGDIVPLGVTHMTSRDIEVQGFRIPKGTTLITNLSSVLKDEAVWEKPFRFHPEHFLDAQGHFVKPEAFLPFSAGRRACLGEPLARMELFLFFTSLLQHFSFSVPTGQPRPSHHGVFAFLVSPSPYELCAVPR
# [8] = inhibitors of intracellular T. cruzi replication, confirmation, NIH3T3 host cells, beta-gal luminescence (AID 2044); type: functional, cell-based;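 further: intracellular parasites grown in NIH/3T3 mouse fibroblasts as host cells; luminescent beta-galactosidase reporter signal from transgenic T. cruzi replicating inside host cells; inhibitors lower the luminescence signal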
# [9] = cytotoxicity toward NIH3T3 fibroblasts, dose response, counter-screen, cell-based, ATP luminescence, mouse fibroblasts (AID 2010); type: functional;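 further: cells exposed to compound for about 90 hours before reading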
# [10] = HEp-2 cell cytotoxicity, dose response, cytotoxicity control for RSV inhibitor project, HTS (AID 2410); type: functional; conditions: human respiratory syncytial virus
# [11] = control 3'UTR Renilla luciferase suppression, dose response, counter-screen for Shn3 inhibitor project, cell-based, Clone20-Shn3RL, cherry-picked (AID 624133); type: functional
# [12] = P. falciparum Dd2 growth inhibitors, dose response, SYBR Green, cherry-picked samples (AID 1159567); type: functional, cell-based
smiles,measurement,setting,value
Cc1cccc(C(=O)NNC(=O)c2ccc(-c3ccccc3)cc2)c1,IC50,[1],5.8 µM (active)
COc1cc(/C=C2/CCC/C(=C\c3cc(O)c(OC)c(Cl)c3)C2=O)cc(Cl)c1O,AC50,[2],0.629 µM (active)
Cc1nc(SCC(=O)NCCc2ccccc2)c2oc3ccccc3c2n1,AC50,Cytochrome P450 1A2,0.562 µM (inconclusive)
same,AC50,Cytochrome P450 3A4,39.8 µM (inconclusive)
same,AC50,Cytochrome P450 2C9,0.398 µM (inconclusive)
O=S(=O)(Nc1ccc2[nH]c(-c3ccco3)nc2c1)c1ccccc1,EC50,[3],36.8 µM (active)
same,EC50,H4,17.3 µM (active)
same,EC50,[4],14.8 µM (active)
CC(C)(C)c1nc(NCCN2CCOCC2)c2nnn(Cc3ccccc3Cl)c2n1,AC50,[5],56.5 µM (active)
same,AC50,[6],8.85 µM (active)
COc1cccc(CN2CCN(Cc3cc(OC)c(OC)c(OC)c3)CC2)c1OC,IC50,[7],74.8 µM (active)
COc1ccc(-n2c(=O)c(C)nc3cnc(Oc4cccc(Cl)c4)nc32)cc1,AC50,Cytochrome P450 2C19; read-out: AC50,39.8 µM (inconclusive)
same,AC50,Cytochrome P450 3A4,3.16 µM (inconclusive)
same,AC50,Cytochrome P450 2D6,25.1 µM (inconclusive)
same,AC50,Cytochrome P450 2C9,25.1 µM (inconclusive)
COc1ccc(-n2nc(C(=O)NCC(=O)N3CCN(c4ccccc4F)CC3)c3ccccc3c2=O)cc1,EC50,[3],8.08 µM (active)
same,EC50,H4,95.7 µM (active)
same,EC50,[4],27.8 µM (active)
COc1ccc(NC(=O)c2c3c(nc4ccccc24)CCC3)cc1S(=O)(=O)N1CCOCC1,IC50,[1],3.75 µM (active)
Sc1nnc(Cn2c(-c3ccccn3)nc3ccccc32)n1-c1ccc2c(c1)OCCO2,EC50,[3],14.9 µM (active)
same,EC50,H4,29.5 µM (active)
same,EC50,[4],12.5 µM (active)
COc1ccc(S(=O)(=O)N2CCC(N3CCN(c4ccccc4OC)CC3)CC2)cc1,IC50,[7],121 µM (active)
Cc1cc(C=C(C#N)C#N)c(C)n1-c1ccccc1,AC50,Cytochrome P450 1A2,2.24 µM (inconclusive)
same,AC50,Cytochrome P450 2C9,1.12 µM (inconclusive)
COc1ccc(Oc2ncc3nc(-c4cccc(C#N)c4)c(=O)n(Cc4cccc(OC)c4)c3n2)cc1,AC50,Cytochrome P450 2C9,2.51 µM (inconclusive)
Cc1cc(OCCCN2CCN(Cc3ccccc3)CC2)ccc1[N+](=O)[O-],IC50,[7],62 µM (active)
same,EC50,[8],0.156 µM (active)
same,EC50,[9],> 60 µM (inconclusive)
CCOCC(=O)Nc1nnc(C2CCCCC2)s1,EC50,[3],83 µM (active)
same,EC50,H4,> 120 µM (not active)
same,EC50,[4],> 120 µM (not active)
O=C(Nc1ccccc1)C1=C[C@@H](c2ccc(C(F)(F)F)cc2)C[C@@H](OCc2ccc(CO)cc2)O1,AC50,[2],5.5 µM (active)
Oc1ccc(N=Nc2ccc(Br)cc2)c(O)c1,AC50,[2],4.2 µM (active)
CCOC(=O)c1cnn(-c2ncnc3c2cnn3C)c1N,EC50,[3],10.9 µM (active)
same,EC50,H4,90.5 µM (active)
same,EC50,[4],31.6 µM (active)
COc1cc(F)c(C2=CC(=O)C[C@H](c3ccc(Cl)cc3)C2)cc1F,AC50,[2],1.43 µM (active)
O=S(=O)(c1ccccc1)N1CCC[C@@]2(CCN(c3ccccc3)C2)C1,AC50,Cytochrome P450 2C9,2.51 µM (inconclusive)
Cc1ccc(/C=C\c2[nH]ccc3c4ccccc4nc2-3)cc1,AC50,[2],17.4 µM (active)
same,CC50,[10],28.9 µM (active)
COc1cccc(NC(=O)CN(C)C(=O)c2cc(-c3ccco3)nc3ccccc23)c1,IC50,[1],6.41 µM (active)
COc1ccc(-c2nc3cnc(OC)nc3n(Cc3cccc(OC)c3)c2=O)cc1,AC50,Cytochrome P450 2C9,3.16 µM (inconclusive)
COc1ccc(/C=C2\C(=O)NC(=S)N(C)C2=O)cc1C,IC50,[7],21.4 µM (active)
same,IC50,[1],0.632 µM (active)
C=CC[C@@H]1C=C[C@H](O/N=C(\C)CCN2CCc3nc(-c4ccccc4)c(-c4ccccc4)cc3C2)[C@H](CO)O1,AC50,Cytochrome P450 2C9,0.0794 µM (inconclusive)
O=C(NN=C1CCCC1)c1cc(O)cc(O)c1,IC50,[1],10.2 µM (active)
CCn1c(O)cc(=O)nc1SCC(=O)Nc1ccc(C)cc1,EC50,[3],> 120 µM (not active)
same,EC50,H4,> 120 µM (not active)
same,EC50,[4],> 120 µM (not active)
Cc1nc2ccccn2c1C(=O)C1=C(O)C(=O)N(CCN2CCOCC2)C1c1cccnc1 (stereo unspecified),AC50,Cytochrome P450 2C9,17.8 µM (inconclusive)
CCN1CCN(CCOc2cccc(Cl)c2Cl)CC1,IC50,[7],70.4 µM (active)
same,EC50,[8],0.151 µM (active)
same,EC50,[9],> 60 µM (not active)
Cc1sc2ncnc(N3CCC(C(=O)Nc4nc5ccc(Cl)cc5s4)CC3)c2c1C,EC50,[3],19.2 µM (active)
same,EC50,H4,28.5 µM (active)
same,EC50,[4],8.58 µM (active)
CCCCc1nc2cc(C(=O)N(C)C3CCOCC3)ccc2o1,EC50,[3],15 µM (active)
same,EC50,H4,0.399 µM (active)
same,EC50,[4],1.36 µM (active)
Cc1c(N2C(=O)/C(=C3/C(=O)N(C)c4ccccc43)SC2=S)c(=O)n(-c2ccccc2)n1C,AC50,Cytochrome P450 1A2,25.1 µM (inconclusive)
same,AC50,Cytochrome P450 3A4,15.8 µM (inconclusive)
same,AC50,Cytochrome P450 2D6,7.94 µM (inconclusive)
same,AC50,Cytochrome P450 2C9,12.6 µM (inconclusive)
CCN1C(=O)/C(=C\N2CCCCCC2)SC1=S,EC50,[3],7.47 µM (active)
same,EC50,H4,12.8 µM (active)
same,EC50,[4],> 120 µM (not active)
Cc1ccc(C(=O)NCC2CCCO2)cc1N1CCCC1=O (stereo unspecified),AC50,Cytochrome P450 2C19,inconclusive
same,AC50,Cytochrome P450 2C9,2.82 µM (inconclusive)
COC(=O)c1ccc(S(=O)(=O)N2CCCN(Cc3ccccc3)CC2)n1C,AC50,[11],28 µM (active)
same,AC50,[5],69.6 µM (active)
same,AC50,[6],51.1 µM (active)
Cc1ccc(NC(=O)C2CCC(C(C)(C)C)CC2)cc1S(=O)(=O)N1CCOCC1 (stereo unspecified),AC50,[5],53.1 µM (active)
same,AC50,[6],12.2 µM (active)
CC(=O)Nc1ccc2[nH]c(C3CCCCC3)nc2c1,AC50,Cytochrome P450 2C19,inconclusive
same,AC50,Cytochrome P450 2C9,17.8 µM (inconclusive)
O=S(=O)(c1cccs1)N1CCN(CCOc2ccc(Cl)cc2)CC1,AC50,[11],23.9 µM (active)
same,AC50,[5],37.6 µM (active)
same,AC50,[6],13.8 µM (active)
CCCCNC(=O)CSc1nc2ccccc2c(=O)n1CCNC(C)=O,AC50,Cytochrome P450 2C9,22.4 µM (inconclusive)
CC(C)(C)[S@@+]([O-])N1Cc2cc(C(=O)N[C@@H]3CCN(Cc4ccccc4)C3)nc(-c3cccc(-c4ccncc4)c3)c2[C@H]1CCO,AC50,[12],6.63 µM (active)
COCC(=O)Nc1ccc2c(c1)C(=O)N(C)C[C@H](OC)[C@H](C)CN(Cc1cccc(F)c1)[C@@H](C)CO2,AC50,[12],5.34 µM (active)
O=C(C1CCCC1)N1CC(=O)N2[C@H](C1)[C@@H](c1ccc(C#CCc3ccccc3)cc1)[C@@H]2CO,AC50,[12],4.51 µM (active)
COc1ccc(NC(=O)Cn2nnc(-c3ccccc3NC(=O)c3cccs3)n2)cc1,EC50,[3],3.68 µM (active)
same,EC50,H4,> 120 µM (not active)
same,EC50,[4],> 120 µM (not active)
